According to patent US5534522A, “(R)-(Z)-1-azabicyclo [2.2.1] heptan-3-one,O-[3-(3-methoxyphenyl)-2-propynyl] oxime maleate as a pharmaceutical agent” (Warner-Lambert Company, priority 1995, dated 1996):
pIC50: −log10 of the molar value. Counter-ions that a name gives are not always drawn. Like-named read-outs stand apart in the source and are kept apart here.

Key:
[1] = Evaluation of acid addition salts (ease of formation and crystallinity); type: physicochemical; conditions: for Overall Salt Rating: based on ease of formation and crystallinity, salt of 1a (free base treated with acid); for isomer formation on recrystallization (words): EtOAc in Table III
Method: Many counter-ions were evaluated for salt-forming properties. The data presented in Table III answer the following questions: (1) did a solid salt precipitate from ether when free base 1a was treated with each acid?; (2) following collection of the salt by either filtration or evaporation of the ether, what solvents were used to crystallize the salt, and was a crystalline salt obtained from each solvent?; (3) melting point information; and (4) overall rating of each salt, based on considerations of ease of formation and crystallinity.

[2] = Stability of crystalline salts of 1a under accelerated stability conditions; type: physicochemical
Description: Maleate and benzoate salts were recrystallized from ethyl acetate and t-butyl methyl ether, respectively. Xenon exposure with the Atlas SunChex set for 0.4±0.1 watts/m^2. Fluorescent exposure with 1000-±100-ft candles.

[3] = Hygroscopicity of salts of Compound 1a; type: physicochemical; conditions: for Hygroscopicity (% wt increase): RT, 81% RH for 16 days, crimped DSC pans; for moisture uptake / hygroscopicity in words: salts of Table IV
[4] = Aqueous solubility of crystalline salts of 1a; type: physicochemical; conditions: for solubility: water, room temp.
[5] = system: hippocampally deficient mice; type: in vivo, mouse
Description: This test measures the ability of a compound to decrease the amount of time needed by the mice to find a hidden platform in the water pool.
The graph represents two sets of experiments, each one with its own control group.

[6] = system: rat cerebral cortex muscarinic receptors; conditions: earlier publications, cited from earlier work
[7] = system: m1-subtype muscarinic receptors; conditions: cited from earlier work
[8] = Refrigerated storage stability of free base; type: physicochemical; conditions: refrigerated at -4° C., up to several days
[9] = target: rat cerebral cortex muscarinic receptors; conditions: Table I; read-out: QNB Binding IC50
[10] = system: rat cerebral cortex muscarinic receptors; experiment: Muscarinic receptor binding, CMD (cis-methyldioxolane) agonist radioligand; conditions: for pIC50: Table I
[11] = Xenon, 26 hours, 0.4±0.1 watts/m^2
[12] = 1a versus isomer 1b, Tables II and III of Jaen reference

COc1cccc(C#CCO/N=C2\CN3CC[C@@H]2C3)c1 [Fumarate (0.5 epui)]
Overall Salt Rating [1]: Medium

CCCC(=O)O.COc1cccc(C#CCON=C2CN3CCC2C3)c1 (centres unmarked)
Overall Salt Rating [1]: Low

COc1cccc(C#CCO/N=C2\CN3CC[C@@H]2C3)c1 [Tartrate (L)-(+) (0.5 equi)]
Overall Salt Rating [1]: Low

COc1cccc(C#CCO/N=C2\CN3CC[C@@H]2C3)c1 [Maleate, (R)-(Z)-1-azabicyclo[2.2.1]heptan-3-one,O-[3-(3-methoxyphenyl)-2-propynyl]oxime, (Z)-butenedioic acid, [1:1 salt]]
Stability to light: presence of 1c ([2]; Fluorescence, 5.5 months, 1000-±100-ft candles): .largecircle. | Stability to light: presence of 1c [2, 11]: .largecircle. | Hygroscopicity (% wt increase) [3]: 0.32 ± 0.02 % wt | moisture uptake / hygroscopicity in words [3]: the least | solubility in water relative to 1a benzoate ([4]; 1a maleate versus 1a benzoate): about 15 times | solubility [4]: 89 mg/mL | latency improvement ([5]; 1 mg/kg, separate set of experiments (maleate)): about 20 seconds | biological activity compared to other salts ([5]; water maze): no loss of biological activity

COc1cccc(C#CCO/N=C2\CN3CC[C@@H]2C3)c1 [L(+)-Lactate]
Overall Salt Rating [1]: Low

Nc1c2c(nc3ccccc13)CCCC2 [tacrine, reference compound]
latency improvement, tacrine control group ([5]; tacrine in the maleate set of experiments): 24 s | improvement of time to find the platform, positive control ([5]; tacrine in the oxalate set of experiments): ~27 s

COc1cccc(C#CCO/N=C2\CN3CC[C@@H]2C3)c1 [ether-precipitated product]
physical state under accelerated stability condition ([2]; 2 weeks, 40° C./75% RH): deliquescent

COc1cccc(C#CCON=C2CN3CCC2C3)c1 (centres unmarked) [Compound 1]
affinity to rat cerebral cortex muscarinic receptors ([6]; rat cerebral cortex): high affinity | ability to displace agonist radioligand (cis-methyldioxolane) at lower concentrations than those required to displace antagonist radioligand (quinuclidinyl benzilate) ([6]; ratio QNB/CMD): 246 times | selective stimulation of m1-subtype muscarinic receptors ([7]; versus other non-m1 muscarinic receptors, earlier publications): selectively stimulate m1-subtype muscarinic receptors without significant stimulation of other non-m1 muscarinic receptors

COc1cccc(C#CCO/N=C2\CN3CC[C@@H]2C3)c1 [Succinate]
Overall Salt Rating [1]: Low

COc1cccc(C#CCO/N=C2\CN3CC[C@@H]2C3)c1 [Hydrobromide]
Overall Salt Rating [1]: Low | hygroscopicity of precipitated salt ([1]; precipitation from Et2O): very hygroscopic

COc1cccc(C#CCO/N=C2\CN3CC[C@H]2C3)c1 [Compound 1b]
muscarinic agonist activity ([7]; isomer 1b, could be due to small amounts of 1a): small amount of activity

COc1cccc(C#CCO/N=C2\CN3CC[C@@H]2C3)c1 [ethyl acetate recrystallized maleate salt]
stability compared with ether-precipitated product ([2]; ethyl acetate recrystallized versus ether-precipitated): more stable

COc1cccc(C#CCO/N=C2\CN3CC[C@@H]2C3)c1 [Oxalate]
Hygroscopicity (% wt increase) [3]: 6.38 ± 1.40 % wt | moisture uptake / hygroscopicity in words ([3]; listed as oxalate salt): less hygroscopic than the hydrochloride | reduction of time required to find the platform ([5]; 1 mg/kg, first set of experiments (oxalate)): about 18 seconds

COc1cccc(C#CCO/N=C2\CN3CC[C@@H]2C3)c1 [Stearate]
Overall Salt Rating [1]: Low

COc1cccc(C#CCO/N=C2\CN3CC[C@@H]2C3)c1 [Malate]
Overall Salt Rating [1]: Low

COc1cccc(C#CCO/N=C2\CN3CC[C@@H]2C3)c1 [Compound 1a, [R-(Z)]-1-azabicyclo [2.2.1]heptan-3-one, O-[3-(3-methoxyphenyl)-2-propynyl]oxime]
decomposition or isomerization to 1c on storage [8]: without noticeable decomposition or isomerization to produce 1c | pIC50 [9]: 5.28 | potency and efficacy as a muscarinic agonist (ratio of QNB to CMD binding) ([10]; 1a versus mixture of 1c/1d): more potent and more efficacious as a muscarinic agonist | pIC50 [10]: 7.60 | m1 potency [7, 12]: greater m1 potency than isomer 1b | m1 receptor subtype selectivity [7, 12]: greater m1 receptor subtype selectivity

COc1cccc(C#CCO/N=C2\CN3CC[C@@H]2C3)c1 [Acetate]
Overall Salt Rating [1]: Low

COc1cccc(C#CCO/N=C2\CN3CC[C@@H]2C3)c1 [Benzoate]
Overall Salt Rating [1]: High | stability in words ([2]; 25° C./60% RH and 30° C./60% RH): stable | Stability: presence of 1c ([2]; 30° C./60% RH, 2 weeks): .largecircle. | Stability to light: presence of 1c [2, 11]: E (presence of 2%-4% 1c) | solubility [4]: 6 mg/mL

COc1cccc(C#CCO/N=C2\CN3CC[C@@H]2C3)c1 [Hydrochloride]
Overall Salt Rating [1]: High | isomer formation on recrystallization (words) [1]: E-Isomer Formation | isomer formation on recrystallization (words) ([1]; listed as hydrochloride): difficult to recrystallize without converting 1a to 1c | Hygroscopicity (% wt increase) [3]: 27.77 ± 0.40 % wt | moisture uptake / hygroscopicity in words ([3]; listed as HCl salt): took up water most rapidly and to the greatest extent | moisture uptake / hygroscopicity in words ([3]; listed as hydrochloride salt): extremely hygroscopic

COc1cccc(C#CCO/N=C2\CN3CC[C@@H]2C3)c1 [Benzene Sulfonae Sulphonate]
Overall Salt Rating [1]: Low

COc1cccc(C#CCO/N=C2\CN3CC[C@@H]2C3)c1 [Tartrate (D)-(-) (0.5 equi)]
Overall Salt Rating [1]: Low

COc1cccc(C#CCO/N=C2\CN3CC[C@@H]2C3)c1 [Tartrate (D)-(-) (1 equi)]
Overall Salt Rating [1]: Low

COc1cccc(C#CCO/N=C2\CN3CC[C@@H]2C3)c1 [Fumarate (1 equi)]
Overall Salt Rating [1]: Low

COc1cccc(C#CCO/N=C2/CN3CCC2C3)c1 (centres unmarked) [(1c + 1d)]
pIC50 [9]: 4.83 | pIC50 [10]: 6.82

COc1cccc(C#CCO/N=C2\CN3CC[C@@H]2C3)c1 [Tartrate (L)-(+) (1 equi)]
Overall Salt Rating [1]: Low
